Literature values, collected in publication PMC12368482, “Antiprotozoal Activity of Highly Substituted Pyrazole and Pyrimidine Derivatives” (Chemmedchem, 2025).

Experiments:
Design in all cases: method as in PMID 17949068
[1] = test system: P. falciparum chloroquine (CQ)‐resistant strain; settings: ref [15]; read-out: IC50 against P. falciparum CQ‐resistant strain; cited from earlier work
[2] = test system: normal myoblast L6 cells; settings: ref [15]; cited from earlier work
[3] = test system: Leishmania donovani; settings: ref [15]; read-out: IC50 against Leishmania donovani; cited from earlier work

For `O=[N+]([O-])c1ccc(-n2nc(-c3ccc(Oc4ccccc4)cc3)cc2N2CCOCC2)cc1` [II], the IC50 [1] is given as 3.7 µM, the “cytotoxicity against normal myoblast L6 cells” value [2] is given as “not cytotoxic” and the IC50 [3] is given as 4.8 µM.
